One molecule from patent publication US7288532B1, “Modified chitosan polymers and enzymatic methods for the production thereof” (The University of Maryland Biotechnology Institute, priority 1998, dated 2007) can be followed below.

This experiment has as its system tyrosinase. Description: tyrosinase activity under mildly acidic conditions by consumption of dissolved oxygen. The experiment is classed as biochemical, mushroom. To be noted: chlorogenic acid 6 mM, 0.16% chitosan, pH about 5.8 to 6.0, tyrosinase 60 U/mL. The protocol: The reactivity of tyrosinase under mildly acidic conditions was studied to verify that the enzyme remains active in acidic solution. The progress of the reaction was measured by monitoring the consumption of dissolved oxygen, using the method described in Mayer et al., “Assay of catechol oxidase: A critical comparison of methods,” Phytochem., 5:783-789 (1966). The dissolved oxygen probe used in these measurements was obtained from Microelectrodes, Londonderry, N.H. Chlorogenic acid (6 mM) was added to a 0.16% chitosan solution, and the pH was adjusted to about 5.8 to 6.0. Tyrosinase (60 U/mL) was added, the reaction vessel sealed, and the dissolved oxygen content measured as a function of time. Two control solutions were prepared and monitored in the same manner, one containing only tyrosinase and chitosan (no phenolic compound), and one containing only chlorogenic acid and chitosan (no enzyme). The results of these measurements are shown in FIG. 1, with the two control solutions labeled “tyrosinase only” and “chlorogenic acid only,” respectively. […] In the solution containing both tyrosinase and chlorogenic acid, however, the oxygen level dropped rapidly in the first few minutes, reaching essentially zero after about 10 to 12 minutes.

In the case of `O=C(/C=C/c1ccc(O)c(O)c1)O[C@@H]1C[C@](O)(C(=O)O)C[C@@H](O)[C@H]1O` [chlorogenic acid], the “time for dissolved oxygen level to reach essentially zero” value fell in the range of 10 to 12 min.
